Source: the kinase profiling compilation of Christmann-Franck et al. (2016)

How the values were obtained:
TEC (human) = TEC (human) (UniProt P42680)
TAOK1 (human) = TAOK1 (human) (UniProt Q7L7X3)
MAP3K3 (human) = MAP3K3 (human) (UniProt Q99759)
FRK (human) = FRK (human) (UniProt P42685)
ULK3 (human) = ULK3 (human) (UniProt Q6PHR2)
CAMKK2 (human) = CAMKK2 (human) (UniProt Q96RR4)
MAP3K4 (human) = MAP3K4 (human) (UniProt Q9Y6R4)
MAP4K5 (human) = MAP4K5 (human) (UniProt Q9Y4K4)
PRKCQ (human) = PRKCQ (human) (UniProt Q04759)
NLK (human) = NLK (human) (UniProt Q9UBE8)
PRKAA1 (human) = PRKAA1 (human) (UniProt Q13131)
ACVR1B (human) = ACVR1B (human) (UniProt P36896)
BTK (human) = BTK (human) (UniProt Q06187)
MAP3K1 (human) = MAP3K1 (human) (UniProt Q13233)
SYK (human) = SYK (human) (UniProt P43405)
MAP4K2 (human) = MAP4K2 (human) (UniProt Q12851)
ABL2 (human) = ABL2 (human) (UniProt P42684)
SIK3 (human) = SIK3 (human) (UniProt Q9Y2K2)
MAP3K11 (human) = MAP3K11 (human) (UniProt Q16584)
EIF2AK1 (human) = EIF2AK1 (human) (UniProt Q9BQI3)
CAMK2G (human) = CAMK2G (human) (UniProt Q13555)
MERTK (human) = MERTK (human) (UniProt Q12866)
TNK2 (human) = TNK2 (human) (UniProt Q07912)
BMP2K (human) = BMP2K (human) (UniProt Q9NSY1)
RPS6KA3 KD1 KD2 (human) = RPS6KA3 KD1 KD2 (human) (UniProt P51812)
CLK2 (human) = CLK2 (human) (UniProt P49760)
PTK2B (human) = PTK2B (human) (UniProt Q14289)
CSK (human) = CSK (human) (UniProt P41240)
EPHB1 (human) = EPHB1 (human) (UniProt P54762)
TBK1 (human) = TBK1 (human) (UniProt Q9UHD2)
HCK (human) = HCK (human) (UniProt P08631)
SMG1 (human) = SMG1 (human) (UniProt Q96Q15)

Chain of PRKCQ (human) (Q04759 whole entry, looked up): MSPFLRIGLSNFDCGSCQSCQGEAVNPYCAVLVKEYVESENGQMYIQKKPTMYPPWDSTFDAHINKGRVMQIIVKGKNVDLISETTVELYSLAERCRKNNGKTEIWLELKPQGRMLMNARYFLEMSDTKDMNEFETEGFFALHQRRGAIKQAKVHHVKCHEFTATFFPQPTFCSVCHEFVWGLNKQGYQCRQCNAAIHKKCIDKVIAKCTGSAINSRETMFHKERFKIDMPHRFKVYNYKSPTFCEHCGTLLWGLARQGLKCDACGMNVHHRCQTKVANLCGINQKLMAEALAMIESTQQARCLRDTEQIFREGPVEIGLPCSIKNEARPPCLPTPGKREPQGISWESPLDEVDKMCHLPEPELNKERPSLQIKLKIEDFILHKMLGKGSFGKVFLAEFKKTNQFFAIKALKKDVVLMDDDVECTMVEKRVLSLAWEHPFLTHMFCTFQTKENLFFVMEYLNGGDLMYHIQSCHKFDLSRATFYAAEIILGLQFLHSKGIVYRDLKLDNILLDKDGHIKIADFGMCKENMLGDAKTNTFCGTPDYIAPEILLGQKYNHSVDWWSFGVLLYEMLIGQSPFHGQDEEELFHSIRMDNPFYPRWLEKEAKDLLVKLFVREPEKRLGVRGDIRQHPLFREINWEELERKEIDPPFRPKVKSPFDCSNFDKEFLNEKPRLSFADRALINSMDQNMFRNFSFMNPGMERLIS
Chain of NLK (human) (Q9UBE8 whole entry, looked up): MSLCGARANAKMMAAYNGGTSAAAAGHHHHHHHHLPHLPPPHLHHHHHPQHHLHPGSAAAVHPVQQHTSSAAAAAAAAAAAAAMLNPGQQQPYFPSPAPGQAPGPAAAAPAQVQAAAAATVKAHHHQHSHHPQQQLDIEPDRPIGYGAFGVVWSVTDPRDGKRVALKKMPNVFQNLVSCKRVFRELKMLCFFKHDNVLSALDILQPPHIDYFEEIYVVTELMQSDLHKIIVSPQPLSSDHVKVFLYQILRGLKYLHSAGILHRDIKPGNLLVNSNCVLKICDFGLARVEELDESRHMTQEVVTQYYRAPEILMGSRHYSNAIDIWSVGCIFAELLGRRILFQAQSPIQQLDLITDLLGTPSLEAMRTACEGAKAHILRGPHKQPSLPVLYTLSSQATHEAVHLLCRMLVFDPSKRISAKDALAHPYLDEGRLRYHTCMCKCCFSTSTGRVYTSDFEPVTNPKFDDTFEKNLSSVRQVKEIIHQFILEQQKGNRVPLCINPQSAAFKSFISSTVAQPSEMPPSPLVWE
Chain of CAMK2G (human) (Q13555 whole entry, looked up): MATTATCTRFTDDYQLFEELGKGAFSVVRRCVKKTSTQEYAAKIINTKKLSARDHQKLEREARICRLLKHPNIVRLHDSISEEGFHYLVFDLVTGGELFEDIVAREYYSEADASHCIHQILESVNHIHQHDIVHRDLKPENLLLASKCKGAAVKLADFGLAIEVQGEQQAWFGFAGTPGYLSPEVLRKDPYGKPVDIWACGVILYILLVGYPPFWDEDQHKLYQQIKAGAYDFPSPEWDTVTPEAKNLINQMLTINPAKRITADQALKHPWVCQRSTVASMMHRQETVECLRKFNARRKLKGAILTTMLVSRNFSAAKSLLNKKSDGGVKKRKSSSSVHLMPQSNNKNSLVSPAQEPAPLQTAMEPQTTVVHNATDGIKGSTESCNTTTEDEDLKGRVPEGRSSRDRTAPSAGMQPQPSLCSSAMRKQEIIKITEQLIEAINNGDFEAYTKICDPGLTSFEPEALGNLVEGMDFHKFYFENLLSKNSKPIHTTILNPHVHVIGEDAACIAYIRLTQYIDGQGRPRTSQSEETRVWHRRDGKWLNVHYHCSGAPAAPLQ
Chain of BMP2K (human) (Q9NSY1 whole entry, looked up): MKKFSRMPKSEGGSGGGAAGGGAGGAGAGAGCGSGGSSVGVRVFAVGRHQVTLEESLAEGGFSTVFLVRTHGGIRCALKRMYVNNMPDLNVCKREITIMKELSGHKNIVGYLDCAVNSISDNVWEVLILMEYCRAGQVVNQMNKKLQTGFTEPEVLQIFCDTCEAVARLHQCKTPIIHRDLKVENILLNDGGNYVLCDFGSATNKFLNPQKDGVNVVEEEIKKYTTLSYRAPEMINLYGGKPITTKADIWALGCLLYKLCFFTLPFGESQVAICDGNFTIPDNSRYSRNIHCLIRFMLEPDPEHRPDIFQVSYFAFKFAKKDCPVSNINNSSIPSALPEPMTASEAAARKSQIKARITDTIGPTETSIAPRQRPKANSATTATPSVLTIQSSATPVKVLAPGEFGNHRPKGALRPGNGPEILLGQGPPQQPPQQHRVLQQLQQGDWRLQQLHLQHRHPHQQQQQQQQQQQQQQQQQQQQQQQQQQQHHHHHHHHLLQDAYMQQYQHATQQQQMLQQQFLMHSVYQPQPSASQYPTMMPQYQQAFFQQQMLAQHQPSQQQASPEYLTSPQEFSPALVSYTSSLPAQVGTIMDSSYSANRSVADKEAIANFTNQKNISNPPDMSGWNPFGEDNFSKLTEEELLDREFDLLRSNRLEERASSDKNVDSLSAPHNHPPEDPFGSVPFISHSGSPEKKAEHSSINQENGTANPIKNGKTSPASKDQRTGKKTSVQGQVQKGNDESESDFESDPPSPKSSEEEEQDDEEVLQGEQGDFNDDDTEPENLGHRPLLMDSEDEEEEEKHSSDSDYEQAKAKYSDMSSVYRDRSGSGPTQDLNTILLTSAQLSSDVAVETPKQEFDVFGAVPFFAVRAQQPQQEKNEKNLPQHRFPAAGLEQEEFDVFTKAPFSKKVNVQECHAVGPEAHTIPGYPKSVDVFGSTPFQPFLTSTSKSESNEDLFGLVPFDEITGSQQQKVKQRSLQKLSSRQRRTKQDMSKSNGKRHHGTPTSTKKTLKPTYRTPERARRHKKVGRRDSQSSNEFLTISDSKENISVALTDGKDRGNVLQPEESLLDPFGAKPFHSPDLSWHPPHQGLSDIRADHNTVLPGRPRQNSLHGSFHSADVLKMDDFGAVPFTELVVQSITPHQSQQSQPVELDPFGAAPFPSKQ
Chain of PRKAA1 (human) (Q13131 whole entry, looked up): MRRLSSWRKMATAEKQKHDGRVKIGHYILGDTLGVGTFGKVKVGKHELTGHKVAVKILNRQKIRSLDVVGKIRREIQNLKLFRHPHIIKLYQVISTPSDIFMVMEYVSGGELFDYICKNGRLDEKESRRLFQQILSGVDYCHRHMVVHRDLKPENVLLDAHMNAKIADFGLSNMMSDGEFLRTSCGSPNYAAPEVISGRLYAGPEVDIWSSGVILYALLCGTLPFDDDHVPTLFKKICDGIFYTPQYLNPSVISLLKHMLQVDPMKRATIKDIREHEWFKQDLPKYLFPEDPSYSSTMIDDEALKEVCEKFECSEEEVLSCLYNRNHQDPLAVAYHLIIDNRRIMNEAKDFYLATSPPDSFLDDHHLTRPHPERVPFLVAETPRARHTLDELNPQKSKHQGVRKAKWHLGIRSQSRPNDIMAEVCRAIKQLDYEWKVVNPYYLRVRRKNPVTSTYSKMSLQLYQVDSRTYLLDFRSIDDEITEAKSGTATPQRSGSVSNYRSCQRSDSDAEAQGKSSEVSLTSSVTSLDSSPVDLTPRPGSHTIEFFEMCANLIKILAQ
Chain of CSK (human) (P41240 whole entry, looked up): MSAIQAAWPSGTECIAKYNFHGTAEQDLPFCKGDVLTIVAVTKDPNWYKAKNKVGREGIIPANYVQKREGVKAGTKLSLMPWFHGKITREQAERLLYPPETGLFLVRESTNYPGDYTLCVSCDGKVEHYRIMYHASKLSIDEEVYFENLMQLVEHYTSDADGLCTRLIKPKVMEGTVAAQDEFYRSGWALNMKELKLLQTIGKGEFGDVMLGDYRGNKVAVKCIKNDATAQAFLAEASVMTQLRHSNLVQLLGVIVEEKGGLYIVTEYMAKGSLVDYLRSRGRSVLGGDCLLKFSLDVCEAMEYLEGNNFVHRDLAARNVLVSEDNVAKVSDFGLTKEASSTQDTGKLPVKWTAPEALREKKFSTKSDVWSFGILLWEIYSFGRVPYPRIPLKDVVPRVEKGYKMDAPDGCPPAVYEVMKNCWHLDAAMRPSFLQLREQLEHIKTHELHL
Chain of TEC (human) (P42680 whole entry, looked up): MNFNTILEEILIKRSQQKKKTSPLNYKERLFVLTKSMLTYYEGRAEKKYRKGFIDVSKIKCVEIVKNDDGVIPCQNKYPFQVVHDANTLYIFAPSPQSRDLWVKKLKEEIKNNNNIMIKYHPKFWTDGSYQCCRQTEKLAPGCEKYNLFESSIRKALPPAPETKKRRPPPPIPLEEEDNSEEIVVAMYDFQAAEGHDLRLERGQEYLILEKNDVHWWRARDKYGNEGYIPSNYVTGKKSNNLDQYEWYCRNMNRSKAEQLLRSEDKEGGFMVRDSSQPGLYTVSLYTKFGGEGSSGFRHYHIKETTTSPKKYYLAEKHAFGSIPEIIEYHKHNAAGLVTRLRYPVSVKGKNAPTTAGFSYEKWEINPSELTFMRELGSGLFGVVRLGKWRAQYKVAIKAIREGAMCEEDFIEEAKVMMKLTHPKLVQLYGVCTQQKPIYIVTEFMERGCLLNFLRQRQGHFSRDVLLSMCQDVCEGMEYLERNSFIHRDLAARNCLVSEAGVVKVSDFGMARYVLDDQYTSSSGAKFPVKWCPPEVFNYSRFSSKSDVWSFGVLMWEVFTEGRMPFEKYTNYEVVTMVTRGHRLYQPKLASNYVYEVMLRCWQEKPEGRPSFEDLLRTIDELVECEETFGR

COc1cc(Nc2c(C#N)cnc3cc(OCCCN4CCN(C)CC4)c(OC)cc23)c(Cl)cc1Cl
IC50 (TEC (human)): 567 nM | IC50 (TAOK1 (human)): 2630 nM | IC50 (MAP3K3 (human)): 612 nM | IC50 (FRK (human)): 507 nM | IC50 (ULK3 (human)): 842 nM | IC50 (CAMKK2 (human)): 1430 nM | IC50 (MAP3K4 (human)): 299 nM | IC50 (MAP4K5 (human)): 493 nM | IC50 (PRKCQ (human)): 1560 nM | IC50 (NLK (human)): 1100 nM | IC50 (PRKAA1 (human)): 1060 nM | IC50 (ACVR1B (human)): 91 nM | IC50 (BTK (human)): 175 nM | IC50 (MAP3K1 (human)): 156 nM | IC50 (SYK (human)): 745 nM | IC50 (MAP4K2 (human)): 431 nM | IC50 (ABL2 (human)): 71 nM | IC50 (SIK3 (human)): 346 nM | IC50 (MAP3K11 (human)): 1540 nM | IC50 (EIF2AK1 (human)): 1220 nM | IC50 (CAMK2G (human)): 1520 nM | IC50 (MERTK (human)): 746 nM | IC50 (TNK2 (human)): 316 nM | IC50 (BMP2K (human)): 1060 nM | IC50 (RPS6KA3 KD1 KD2 (human)): 2390 nM | IC50 (CLK2 (human)): 1100 nM | IC50 (PTK2B (human)): 1220 nM | IC50 (CSK (human)): 707 nM | IC50 (EPHB1 (human)): 369 nM | IC50 (TBK1 (human)): 1260 nM | IC50 (HCK (human)): 580 nM | IC50 (SMG1 (human)): 836 nM
